Measurements: US12462378B2, “Information processing device, screening device, information processing method, screening method, and program” (Kyoto University, priority 2019, dated 2025)
Where a SMILES comes first, the peptide text is derived from it. The star is where a group is joined. Cbz = O=C(OCc1ccccc1)*; CH2F = FC*

Columns and labels:
[1] = system: nerve cells differentiated from iPS cells; assay: Prediction model MDL score of nerve cell images versus Z-VAD-FMK concentration; format: cell-based, human; settings: FIG. 14, higher score = greater probability that the cell will survive
Source text: Activated caspase-3 in apoptotic nerve cells was detected by using a fluorogenic substrate consisting of a four-amino acid peptide DEVD (SEQ ID NO: 1) bound to a nucleic acid binding dye (product name “CellEvent Caspase-3/7 Green Detection Reagent”, Thermo Fisher Scientific Inc.). Since the DEVD peptides inhibit the binding of fluorescent dyes to DNA, the above-described fluorogenic substrate is essentially non-fluorescent. However, when activated caspase-3 in dead cells cleaves the DEVD peptide, a fluorescent dye binds to the DNA to cause fluorescence, which can be detected using a standard FITC green filter set of a standard time lapse imaging system (product name “Incucyte ZOOM”, Essen Bioscience, Ltd.) (exposure time 400 ms). Images were photographed over time every 6 hours after drug administration.
The original size of the single-well image captured by using the time lapse imaging system (product name “Incucyte ZOOM”, Essen Bioscience, Ltd.) was 1,392×1,038 pixels, and four images were cut out from this image and extracted as the cropped image IMGC. The original image was divided evenly into four regions, and square images were taken out from the center of each region. The size of the trimmed cropped image IMGC was selected from 128×128, 256×256, 512×512, 768×768, and 1,020×1,020 in width×height. […]

[2] = system: nerve cells differentiated from iPS cells; assay: Single cell analysis (single cell RNA sequence, UMAP clustering) of nerve cells with Z-VAD-FMK; format: cell-based, human
Procedure: FIG. 15 is a view showing the schematics of a proposed method. As illustrated in the drawing, Z-VAD-FMK is added to nerve cells and changes in gene expression of individual cells are observed before cell death occurs (before caspase-3 activation occurs) (single cell RNA sequence=WHAT in the drawing). At the same time, the images are acquired, and the CNN-based prediction model MDL is used to check where the changes are occurring (WHERE in the drawing). In this manner, a method for identifying the molecules, where and what is occurring before cell death, is proposed.
Single cell analysis was performed using the above-described proposed method. FIG. 16 is a view illustrating an example of clustering results of cells. While changing the concentration of Z-VAD-FMK added to the nerve cells to 0 [μM], 0.2 [μM], and 25 [μM], the cell population was separated into a total of 15 types of clusters ranging from 0 to 14 by using a visualization method (one type of dimensional compression method) which is called UMAP (uMAP).
FIG. 22 is a view illustrating a relationship between the Z-VAD-FMK concentration and the cluster size. […] As a result, the cluster 12 was identified as a cluster that satisfies the conditions.

COC(=O)C[C@H](NC(=O)[C@H](C)NC(=O)[C@@H](NC(=O)OCc1ccccc1)C(C)C)C(=O)CF [Z-VAD-FMK] (Cbz-Val-Ala-Asp(OMe)-CH2F)
score of the prediction model MDL (probabilistic value related to the life or death of cells) [1]: the higher the Z-VAD-FMK concentration, the higher the score
effect of Z-VAD-FMK concentration on cluster shapes of UMAP expanded cell populations ([2]; 0, 0.2 and 25 μM Z-VAD-FMK, 15 clusters (0 to 14), FIGS. 16 to 21): no effect on most of the cell populations
cluster size (number of cells in cluster 12, caspase-3 activated) ([2]; cluster 12, with addition of Z-VAD-FMK, FIG. 22): the number of cells in its own cluster decreased with the addition of Z-VAD-FMK
